Like-named read-outs stand apart in the source and are kept apart here.
Key:
Type in all cases: cell-based, human
MYB mRNA = test: RT-qPCR splicing assay, MYB canonical junction (CJ) and alternative junction (AJ) mRNA; conditions: Homo sapiens; for AC50: increase in MYB alternative junction (AJ) mRNA, read-out: MYB AJ AC50
How it was run: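 A673 cells (normalized to PPIA) or K562 cells (normalized to GAPDH or GUSB) were treated 24 h at 37 °C with an 11-point 3-fold dilution series, top 10 uM, DMSO ≤0.25%. Cell lysates went to one-step RT-qPCR measuring canonical- and alternative-junction MYB or HTT transcripts.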

HTT = test: HiBiT protein abundance assay, HTT HiBiT K562 cell line; conditions: HiBiT K562 cell line, 24 hours, top dose 10 μM; read-out: Effect on protein abundance, HTT (IC50 category)
How it was run: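 K562 knock-in lines with endogenous HiBiT-tagged target, 10,000 cells/well in IMDM + FBS, treated 24 h at 37° C with 10-point 3-fold dilutions (top 10 μM final; DMSO ≤0.25%). Lytic Nano-Glo HiBiT luminescence normalized to untagged K562 baseline and DMSO controls; IC50 = concentration giving 50% abundance via four-parameter fit.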

Target C = test: HiBiT protein abundance assay, Target C (Promega Nano-Glo HiBiT Lytic Detection System, knock-in K562 cell line); conditions: Homo sapiens, K562, 24 h, HiBiT K562 cell line, 24 hours, top dose 10 μM; read-out: Effect on protein abundance, Target C (IC50 category)
How it was run: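 Knock-in K562 cells carrying HiBiT-tagged Target C, 10,000 per well, treated 24 h at 37 °C with 10-point threefold dilutions (top 10 μM final, ≤0.25% DMSO). Lytic HiBiT luminescence read; response normalised to unmodified K562 and DMSO controls, four-parameter fit interpolated at 50% for IC50.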

[1] = Table 5 panel, canonical junction qPCR, compound concentration having 50% response in CJ decrease, read-out: MYB IC50 (decrease in CJ mRNA levels)
[2] = decrease in MYB canonical junction (CJ) mRNA, RT-qPCR, read-out: MYB CJ IC50

Row | SMILES | IC50 (MYB mRNA; [1]) | IC50 (MYB mRNA; [2]) | IC50 (HTT) | IC50 (Target C) | AC50 (MYB mRNA; RT-qPCR)
1 | Cc1cn2nc(-c3ccc4c(c3)CCN(C3CCN(C)C3)C4=O)cc(C)c2n1 (stereo not shown) [Compound 282] | > 10 µM | > 10 µM | > 10 µM | > 10 µM | > 10 µM
2 | Cc1cn2nc(-c3ccc4c(=O)n(C5CCN(C)CC5)cnc4c3)nc2c(C)n1 [Compound 288, 7-{6,8-dimethyl-[1,2,4]triazolo[1,5-a]pyrazin-2-yl}1-3-(1-methylpiperidin-4-yl)quinazolin-4-one] | 1 to 10 µM | 1 to 10 µM | 1 to 10 µM | 1 to 10 µM | 1 to 10 µM
3 | Cc1nc2c(F)cc(-c3ccc4c(=O)n(C5CCN(C)CC5)cnc4c3)cc2o1 [Compound 300] | 1 to 10 µM | 0.1 to 1 µM | 0.1 to 1 µM | 1 to 10 µM | 1 to 10 µM
4 | Cc1cn2nc(-c3ccc4c(=O)n([C@@H]5CCN[C@H](C)C5)ncc4c3)cc(C)c2n1 [Compound 272] | < 0.1 µM | 0.1 to 1 µM | < 0.1 µM | 0.1 to 1 µM | < 0.1 µM
5 | CNc1cc(-c2cn3cc(C)nc3c(C)n2)cc2ncn(C3CCNCC3)c(=O)c12 [Compound 360, 7-{2,8-dimethylimidazo[1,2-a]pyrazine-6-yl}-5-(methylamino)-3-(piperidin-4-yl)quinazolin-4-one] | 1 to 10 µM | > 10 µM | > 10 µM | > 10 µM | 1 to 10 µM
6 | Cc1cn2cc(-c3ccc4c(=O)n(C5CCNCC5)cnc4c3)ncc2n1 [Compound 297] | 0.1 to 1 µM | 0.1 to 1 µM | 1 to 10 µM | 1 to 10 µM | 0.1 to 1 µM
7 | Cc1cn2nc(-c3ccc4c(=O)n([C@@H]5CCN(C)[C@H](C)C5)ncc4c3)cc(C)c2n1 [Compound 277] | 0.1 to 1 µM | 0.1 to 1 µM | 0.1 to 1 µM | 0.1 to 1 µM | 0.1 to 1 µM
8 | Cc1cn2nc(-c3ccc4c(=O)n(C5CCNC(C)(C)C5)ncc4c3)cc(C)c2n1 (stereo not shown) [Compound 279] | < 0.1 µM | 0.1 to 1 µM | < 0.1 µM | < 0.1 µM | < 0.1 µM

Continued, in another order:

Row | IC50 (MYB mRNA; [1]) | IC50 (MYB mRNA; [2]) | IC50 (HTT) | IC50 (Target C) | SMILES | AC50 (MYB mRNA; RT-qPCR)
9 | < 0.1 µM | < 0.1 µM | < 0.1 µM | < 0.1 µM | Cc1cn2nc(-c3cc(F)c4c(=O)n([C@H]5CCNC6(CC6)C5)cnc4c3)cc(C)c2n1 (single isomer, unassigned) [Compound 357] | < 0.1 µM
10 | 0.1 to 1 µM | < 0.1 µM | < 0.1 µM | < 0.1 µM | Cc1cn2nc(-c3cc(F)c4c(=O)n([C@@H]5CCNC6(CC6)C5)cnc4c3)cc(C)c2n1 [Compound 356] | 0.1 to 1 µM
11 | 1 to 10 µM | 1 to 10 µM | > 10 µM | > 10 µM | Cc1cn2cc(-c3cc(F)c4c(=O)n(C5CCNCC5(F)F)cnc4c3)cc(F)c2n1 (stereo not shown) [Compound 339] | 1 to 10 µM
12 | 0.1 to 1 µM | 1 to 10 µM | > 10 µM | > 10 µM | Cc1cn2cc(-c3cc(F)c4c(=O)n([C@H]5CCNC[C@@H]5O)cnc4c3)cc(F)c2n1 [Compound 347, 5-fluoro-7-{8-fluoro-2-methylimidazo[1,2-a]pyridin-6-yl}-3-[(3S,4S)-3-hydroxypiperidin-4-yl]quinazolin-4-one] | 1 to 10 µM
13 | 0.1 to 1 µM | 0.1 to 1 µM | 1 to 10 µM | 1 to 10 µM | Cc1cn2cc(-c3ccc4c(=O)n([C@@H]5CCN[C@H](C)C5)cnc4c3)cc(F)c2n1 [Compound 295] | 0.1 to 1 µM
14 | < 0.1 µM | < 0.1 µM | 0.1 to 1 µM | 0.1 to 1 µM | Cc1cn2cc(-c3cc(F)c4c(=O)n([C@H]5CCN[C@H](C)C5)cnc4c3)cc(F)c2n1 [Compound 346, trans-5-fluoro-7-(8-fluoro-2-methylimidazo[1,2-a]pyridin-6-yl)-3-(2-methylpiperidin-4-yl)quina-zolin-4(3H)-one] | < 0.1 µM
15 | < 0.1 µM | < 0.1 µM | 0.1 to 1 µM | 0.1 to 1 µM | Cn1cc2cc(-c3cc(F)c4c(=O)n(C5CCNCC5)cnc4c3)cc(C#N)c2n1 [Compound 316] | < 0.1 µM
16 | 0.1 to 1 µM | 0.1 to 1 µM | 0.1 to 1 µM | 1 to 10 µM | Cc1cn2cc(-c3ccc4c(=O)n(C5CCNCC5)cnc4c3)cc(C)c2n1 [Compound 292] | 0.1 to 1 µM
17 | < 0.1 µM | < 0.1 µM | < 0.1 µM | < 0.1 µM | Cc1cn2nc(-c3cc(F)c4c(=O)n(C5CCNC6(CC6)C5)cnc4c3)cc(C)c2n1 (stereo not shown) [Compound 351] | < 0.1 µM
